Patent US4698352A, “4-oxo-1,4-dihydronicotinic acid derivatives, salts thereof, and antibacterial agents containing the same” (Toyama Chemical Co., Ltd., priority 1982, dated 1987)
Converted amounts (≈) assume the structure as drawn. Read-outs that look alike come from different tables or passages of the source.

Key:
Test in all cases: Antibacterial activity (MIC), agar dilution
Type in all cases: cell-based
Ps. aeruginosa GN3379* = conditions: Pseudomonas aeruginosa, Ps. aeruginosa GN3379, penicillinase-producing, 10^6 cells per ml
Description: (§1) The amount of bacteria inoculated was 10^4 cells per plate (10^6 cells per ml).
(§2) * Penicillinase-producing bacteria

E. coli TK-3* = conditions: Escherichia coli, 20 h, E. coli TK-3, penicillinase-producing; 10^6 cells per ml; read-out: MIC
Description: as §1, §2

Kl. pneumoniae Y-4* = conditions: Klebsiella pneumoniae, 20 h, Kl. pneumoniae Y-4, penicillinase-producing; 10^6 cells per ml; read-out: MIC
Description: as §1, §2

St. aureus F-137* = conditions: Staphylococcus aureus, 20 h, St. aureus F-137, penicillinase-producing; 10^6 cells per ml; read-out: MIC
Description: as §1, §2

E. coli NIHJ JC-2 = conditions: Escherichia coli, NIHJJC2, 20 h
Description: as §1

Ent. cloacae IID977 = conditions: Enterobacter cloacae, IID977, 20 h
Description: as §1

St. aureus FDA209P = conditions: Staphylococcus aureus, FDA209P, 20 h
Description: as §1

Kl. pneumoniae Y-50 = conditions: Klebsiella pneumoniae, Y50, 20 h, 10^6 cells per ml, 37° C., read-out: MIC
Description: as §1

Ps. aeruginosa S-68 = conditions: Pseudomonas aeruginosa
Description: as §1

Pro. mirabilis T-111 = conditions: Proteus mirabilis, 37° C.
Description: as §1

E. coli TK-111 = conditions: Escherichia coli, TK111, 20 h, E. coli TK-111; 10^6 cells per ml; 37° C., 20 hours; read-out: MIC
Description: as §1

Kl. pneumoniae Y-41 = conditions: Klebsiella pneumoniae, Y41, 10^6 cells per ml, 37° C., 20 hours, read-out: MIC
Description: as §1

Pro. vulgaris GN3027 = conditions: Proteus vulgaris, GN3027, 20 h, Pro. vulgaris GN3027; 10^6 cells per ml; 37° C., 20 hours; read-out: MIC
Description: as §1

Aci. antitratus A-6 = conditions: 20 h, Aci. antitratus A-6; 10^6 cells per ml; 37° C., 20 hours; read-out: MIC
Description: as §1

Pro. morganii T-216 = conditions: Morganella morganii, 37° C.
Description: as §1

Ps. aeruginosa IFO3445 = conditions: Pseudomonas aeruginosa
Description: as §1

Ps. aeruginosa GN918** = conditions: Pseudomonas aeruginosa, GN918, 20 h, Ps. aeruginosa GN918, cephalospolinase-producing; 10^6 cells per ml
Description: as §1
(§3) ** Cephalospolinase-producing bacteria

Pro. vulgaris GN76** = conditions: Proteus vulgaris, 20 h; Pro. vulgaris GN76, cephalospolinase-producing; 10^6 cells per ml; read-out: MIC
Description: as §1, §3

E. coli GN5482** = conditions: Escherichia coli
Description: as §1, §3

[1] = E. coli NIHJ JC-2, 10^6 cells per ml, 37° C., 20 hours, read-out: MIC
[2] = Ent. cloacae IID977, 10^6 cells per ml, 37° C., 20 hours, read-out: MIC
[3] = St. aureus FDA209P, 10^6 cells per ml, 37° C., 20 hours, read-out: MIC
[4] = Ps. aeruginosa IFO3445, 10^6 cells per ml, 37° C., 20 hours, read-out: MIC
[5] = 20 h, E. coli GN5482, cephalospolinase-producing, 10^6 cells per ml, read-out: MIC
[6] = T216, 10^6 cells per ml, 20 hours, read-out: MIC

| SMILES | MIC (Ps. aeruginosa GN3379*; GN3379, 20 h) | MIC (E. coli TK-3*) | MIC (Kl. pneumoniae Y-4*) | MIC (St. aureus F-137*) | MIC (E. coli NIHJ JC-2; [1]) | MIC (Ent. cloacae IID977; [2]) | MIC (St. aureus FDA209P; [3]) | MIC (Kl. pneumoniae Y-50) | MIC (Ps. aeruginosa S-68; S68, 20 h) | MIC (Pro. mirabilis T-111; T111, 20 h, 10^6 cells per ml) | MIC (E. coli TK-111) | MIC (Kl. pneumoniae Y-41) | MIC (Pro. vulgaris GN3027) | MIC (Aci. antitratus A-6) | MIC (Ps. aeruginosa IFO3445; [4]) | MIC (Ps. aeruginosa GN918**) | MIC (Pro. vulgaris GN76**) | MIC (E. coli GN5482**; [5]) | MIC (Pro. morganii T-216; [6]) | also measured |
| --- | --- | --- | --- | --- | --- | --- | --- | --- | --- | --- | --- | --- | --- | --- | --- | --- | --- | --- | --- | --- |
| O=C(O)c1cn(-c2ccc(O)cc2)c(-c2ccc(N3CCCC3)cc2)cc1=O | 3.13 µg/mL (≈ 8.32 µM) | 0.78 µg/mL (≈ 2.07 µM) | 3.13 µg/mL (≈ 8.32 µM) | 0.1 µg/mL (≈ 0.266 µM) | 0.39 µg/mL (≈ 1.04 µM) | 0.78 µg/mL (≈ 2.07 µM) | 0.2 µg/mL (≈ 0.531 µM) | 0.78 µg/mL (≈ 2.07 µM) | 3.13 µg/mL (≈ 8.32 µM) | 1.56 µg/mL (≈ 4.14 µM) | 0.2 µg/mL (≈ 0.531 µM) | 1.56 µg/mL (≈ 4.14 µM) | 0.2 µg/mL (≈ 0.531 µM) | ≤ 0.05 µg/mL | 6.25 µg/mL (≈ 16.6 µM) | 1.56 µg/mL (≈ 4.14 µM) | 0.78 µg/mL (≈ 2.07 µM) | ≤ 0.05 µg/mL | – | MIC (Pro. morganii T-216; T216, 20 h, 10^6 cells per ml): 1.56 µg/mL (≈ 4.14 µM) |
| O=C(O)c1cn(-c2ccc(O)cc2)c(-c2ccc(-c3ccccc3)s2)cc1=O | 3.13 µg/mL (≈ 8.04 µM) | 0.78 µg/mL (≈ 2 µM) | 1.56 µg/mL (≈ 4.01 µM) | ≤ 0.05 µg/mL | 0.39 µg/mL (≈ 1 µM) | – | ≤ 0.05 µg/mL | 0.78 µg/mL (≈ 2 µM) | 3.13 µg/mL (≈ 8.04 µM) | – | ≤ 0.05 µg/mL | 3.13 µg/mL (≈ 8.04 µM) | ≤ 0.05 µg/mL | 0.2 µg/mL (≈ 0.514 µM) | – | 1.56 µg/mL (≈ 4.01 µM) | 0.39 µg/mL (≈ 1 µM) | ≤ 0.05 µg/mL | 0.78 µg/mL (≈ 2 µM) | MIC (Ent. cloacae IID977): 1.56 µg/mL (≈ 4.01 µM); MIC (Pro. mirabilis T-111; T111, 10^6 cells per ml, 20 hours, read-out: MIC): 0.78 µg/mL (≈ 2 µM); MIC (Ps. aeruginosa IFO3445; IFO3445, 20 h): 3.13 µg/mL (≈ 8.04 µM) |
| CC1Cc2cc(-c3cc(=O)c(C(=O)O)cn3-c3ccc(O)cc3)ccc2O1 (stereo not drawn) | – | 3.13 µg/mL (≈ 8.61 µM) | 12.5 µg/mL (≈ 34.4 µM) | 3.13 µg/mL (≈ 8.61 µM) | – | 3.13 µg/mL (≈ 8.61 µM) | – | 1.56 µg/mL (≈ 4.29 µM) | – | 12.5 µg/mL (≈ 34.4 µM) | 0.78 µg/mL (≈ 2.15 µM) | 6.25 µg/mL (≈ 17.2 µM) | 0.78 µg/mL (≈ 2.15 µM) | 3.13 µg/mL (≈ 8.61 µM) | 50 µg/mL (≈ 138 µM) | 12.5 µg/mL (≈ 34.4 µM) | 3.13 µg/mL (≈ 8.61 µM) | – | 3.13 µg/mL (≈ 8.61 µM) | MIC (Ps. aeruginosa GN3379*; 20 h, read-out: MIC): 25 µg/mL (≈ 68.8 µM); MIC (E. coli NIHJ JC-2): 1.56 µg/mL (≈ 4.29 µM); MIC (St. aureus FDA209P): 1.56 µg/mL (≈ 4.29 µM); MIC (Ps. aeruginosa S-68; S68, Ps. aeruginosa S-68, 10^6 cells per ml, 37° C., 20 hours, read-out: MIC): 25 µg/mL (≈ 68.8 µM); MIC (E. coli GN5482**; GN5482, 20 h): 1.56 µg/mL (≈ 4.29 µM) |
